# Assay results: the supplement of paper PMC11061612
# Columns and labels:
# Test in all cases: combination Emax (second highest fraction inhibited in the dose matrix, 72 h); higher = more inhibition; extreme values may be limits of the assay
# LN-405 (Glioblastoma) = system: LN-405 (Glioblastoma)
# In short: (§1)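 Bliss excess equals the observed combination effect minus the expected value EA + EB − EA·EB, where EA and EB are the effects of each agent alone. Combination Emax is the second-highest inhibition within the matrix. Inhibition was scaled from CellTiter-Glo 2.0 luminescence, with 0 set by vehicle wells and 1 by blank wells, after 72 hours of two-drug dosing of cells plated in 1536-well plates.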
# [1] = system: CAL-29 (Bladder Carcinoma)
# In short: as §1
# [2] = system: KARPAS-422 (B-Cell Non-Hodgkin's Lymphoma)
# In short: as §1
# [3] = system: CAPAN-2 (Pancreatic Carcinoma)
# In short: as §1
# PA-1 (Ovarian Carcinoma) = system: PA-1 (Ovarian Carcinoma)
# In short: as §1
# [4] = system: CCK-81 (Colorectal Carcinoma)
# In short: as §1
# GI-ME-N (Neuroblastoma) = system: GI-ME-N (Neuroblastoma)
# In short: as §1
# [5] = system: PANC-10-05 (Pancreatic Carcinoma)
# In short: as §1
# [6] = system: BICR22 (Oral Cavity Carcinoma)
# In short: as §1
# Hs-445 (Non-Cancerous) = system: Hs-445 (Non-Cancerous)
# In short: as §1
# A498 (Kidney Carcinoma) = system: A498 (Kidney Carcinoma)
# In short: as §1
# [7] = system: JSC-1 (B-Cell Non-Hodgkin's Lymphoma)
# In short: as §1
# 8-MG-BA (Glioblastoma) = system: 8-MG-BA (Glioblastoma)
# In short: as §1
# [8] = system: MDST8 (Colorectal Carcinoma)
# In short: as §1
# [9] = system: COR-L311 (Small Cell Lung Carcinoma)
# In short: as §1
# [10] = system: A549 (Lung Adenocarcinoma)
# In short: as §1
# IGR-37 (Melanoma) = system: IGR-37 (Melanoma)
# In short: as §1
# [11] = system: NCI-H1581 (Non-Small Cell Lung Carcinoma)
# In short: as §1
# U-2-OS (Osteosarcoma) = system: U-2-OS (Osteosarcoma)
# In short: as §1
# [12] = system: TT2609-C02 (Thyroid Gland Carcinoma)
# In short: as §1
SMILES,combination Emax (LN-405 (Glioblastoma)),combination Emax [1],combination Emax [2],combination Emax [3],combination Emax (PA-1 (Ovarian Carcinoma)),combination Emax [4],combination Emax (GI-ME-N (Neuroblastoma)),combination Emax [5],combination Emax [6],combination Emax (Hs-445 (Non-Cancerous)),combination Emax (A498 (Kidney Carcinoma)),combination Emax [7],combination Emax (8-MG-BA (Glioblastoma)),combination Emax [8],combination Emax [9],combination Emax [10],combination Emax (IGR-37 (Melanoma)),combination Emax [11],combination Emax (U-2-OS (Osteosarcoma)),combination Emax [12]
"CCc1c2c(nc3ccc(O)cc13)-c1cc3c(c(=O)n1C2)COC(=O)[C@]3(O)CC [SN-38] + CN(C)CCCOc1ccc(-c2ccc3ncc4c(c3c2)n(C2CCOCC2)c(=O)n4C)cn1 [AZD0156] (first compound max 0.3 µM, 7x7, partner max 1 µM)",0.259,0.928,0.937,0.206,0.845,0.673,0.345,0.73,0.907,0.993,0.5,0.983,0.975,0.802,0.821,0.755,0.826,0.785,0.0889,0.441
"C[C@@H](c1ccc2nccn2c1)n1nnc2ncc(-c3cnn(C)c3)nc21 [Savolitinib] + CC1(C)CCC(CN2CCN(c3ccc(C(=O)NS(=O)(=O)c4ccc(NCC5CCOCC5)c([N+](=O)[O-])c4)c(Oc4cnc5[nH]ccc5c4)c3)CC2)=C(c2ccc(Cl)cc2)C1 [Venetoclax] (first compound max 1 µM, 7x7, partner max 1 µM)",0.173,0.0725,0.257,0.0542,0.276,0.1,0.17,0.117,0.108,0.292,0.172,0.115,0.12,0.176,0.525,0.142,0.3,0.135,0.125,0.0924
"C[C@@H](c1ccc2nccn2c1)n1nnc2ncc(-c3cnn(C)c3)nc21 [Savolitinib] + Cc1c2c(nn1C)CSCc1cc(n(C)n1)CSc1cc(c3ccccc3c1)OCCCc1c(C(=O)O)n(C)c3c-2c(Cl)ccc13 [AZD5991] (first compound max 1 µM, 7x7, partner max 1 µM)",0.256,0.186,0.961,0.166,0.885,0.678,0.245,0.153,0.269,0.211,0.212,1,0.595,0.159,0.246,0.22,0.279,0.951,0.18,0.156
"Cn1cnc2c(F)c(Nc3ccc(Br)cc3Cl)c(C(=O)NOCCO)cc21 [Selumetinib] + C=CCn1c(=O)c2cnc(Nc3ccc(N4CCN(C)CC4)cc3)nc2n1-c1cccc(C(C)(C)O)n1 [AZD1775] (first compound max 10 µM, partner max 1 µM)",0.148,0.654,0.623,0.419,0.875,0.885,0.209,0.546,0.523,0.689,0.408,0.945,0.797,0.609,0.504,0.779,0.878,0.639,0.699,0.655
"Cn1cnc2c(F)c(Nc3ccc(Br)cc3Cl)c(C(=O)NOCCO)cc21 [Selumetinib] + CC(C)n1c(=O)n(C)c2cnc3cc(F)c(-c4ccc(OCCCN5CCCCC5)nc4)cc3c21 [AZD1390] (first compound max 10 µM, 7x7, partner max 0.3 µM)",0.129,0.216,0.123,0.378,0.276,0.379,0.178,0.402,0.334,0.288,0.318,0.584,0.116,0.537,0.109,0.761,0.76,0.455,0.577,0.663
"Cn1cnc2c(F)c(Nc3ccc(Br)cc3Cl)c(C(=O)NOCCO)cc21 [Selumetinib] + CCN(CCO)CCCOc1ccc2c(Nc3cc(CC(=O)Nc4cccc(F)c4)[nH]n3)ncnc2c1 [AZD2811] (first compound max 10 µM, 7x7, partner max 1 µM)",0.242,0.389,0.263,0.407,0.654,0.372,0.213,0.464,0.538,0.414,0.383,0.682,0.286,0.63,0.733,0.807,0.774,0.487,0.661,0.622
"Cn1cnc2c(F)c(Nc3ccc(Br)cc3Cl)c(C(=O)NOCCO)cc21 [Selumetinib] + C[C@@H]1COCCN1C2=NC(=NC(=C2)C3(CC3)[S@](=N)(=O)C)C4=C5C=CNC5=NC=C4 [AZD6738] (first compound max 10 µM, 7x7, partner max 10 µM)",0.405,0.696,0.519,0.428,0.855,0.923,0.312,0.613,0.722,0.755,0.57,0.957,0.792,0.784,0.32,0.875,0.864,0.545,0.624,0.506
"CC(=O)Nc1cccc(-n2c(=O)n(C3CC3)c(=O)c3c(Nc4ccc(I)cc4F)n(C)c(=O)c(C)c32)c1 [Trametinib] + Cc1nc(-c2cn3c(n2)-c2ccc(-c4cnn(C(C)(C)C(N)=O)c4)cc2OCC3)n(C(C)C)n1 [Taselisib] (first compound max 1 µM, 7x7, partner max 10 µM)",0.76,0.956,0.63,0.578,1,0.98,0.77,0.838,1,0.611,0.861,0.631,0.863,0.865,0.751,1,1,0.586,1,0.821
"CC1(C)CCC(CN2CCN(c3ccc(C(=O)NS(=O)(=O)c4ccc(NCC5CCOCC5)c([N+](=O)[O-])c4)c(Oc4cnc5[nH]ccc5c4)c3)CC2)=C(c2ccc(Cl)cc2)C1 [Venetoclax] + C1CN(CCC1(C(=O)N[C@@H](CCO)C2=CC=C(C=C2)Cl)N)C3=NC=NC4=C3C=CN4 [Capivasertib] (first compound max 1 µM, 7x7, partner max 3 µM)",0.429,0.277,0.917,0.154,0.636,0.156,0.24,0.273,0.272,0.751,0.537,0.161,0.26,0.317,0.842,0.36,0.556,0.0621,0.263,0.139
"CC1(C)CCC(CN2CCN(c3ccc(C(=O)NS(=O)(=O)c4ccc(NCC5CCOCC5)c([N+](=O)[O-])c4)c(Oc4cnc5[nH]ccc5c4)c3)CC2)=C(c2ccc(Cl)cc2)C1 [Venetoclax] + C=CCn1c(=O)c2cnc(Nc3ccc(N4CCN(C)CC4)cc3)nc2n1-c1cccc(C(C)(C)O)n1 [AZD1775] (first compound max 1 µM, partner max 1 µM)",0.326,0.483,0.995,0.453,0.847,0.784,0.272,0.486,0.782,0.99,0.452,0.888,0.755,0.378,0.808,0.406,0.852,0.32,0.679,0.639
"CC1(C)CCC(CN2CCN(c3ccc(C(=O)NS(=O)(=O)c4ccc(NCC5CCOCC5)c([N+](=O)[O-])c4)c(Oc4cnc5[nH]ccc5c4)c3)CC2)=C(c2ccc(Cl)cc2)C1 [Venetoclax] + CCN(CCO)CCCOc1ccc2c(Nc3cc(CC(=O)Nc4cccc(F)c4)[nH]n3)ncnc2c1 [AZD2811] (first compound max 1 µM, 7x7, partner max 1 µM)",0.276,0.264,0.922,0.204,0.527,0.199,0.186,0.288,0.492,0.68,0.216,0.332,0.245,0.306,0.927,0.461,0.537,0.266,0.257,0.418
"CC1(C)CCC(CN2CCN(c3ccc(C(=O)NS(=O)(=O)c4ccc(NCC5CCOCC5)c([N+](=O)[O-])c4)c(Oc4cnc5[nH]ccc5c4)c3)CC2)=C(c2ccc(Cl)cc2)C1 [Venetoclax] + CN(C)CCCOc1ccc(-c2ccc3ncc4c(c3c2)n(C2CCOCC2)c(=O)n4C)cn1 [AZD0156] (first compound max 1 µM, 7x7, partner max 1 µM)",0.306,0.25,0.873,0.199,0.3,0.244,0.226,0.229,0.337,0.221,0.263,0.141,0.171,0.199,0.604,0.28,0.503,0.182,0.188,0.154
